Experimental data published in ChEMBL document CHEMBL4330100, “Selective estrogen receptor degraders with novel structural motifs induce regression in a tamoxifen-resistant breast cancer xenograft” (Bioorg Med Chem Lett, 2019).

Legend:
[1] = molecular target: T1, Estrogen receptor (Homo sapiens) (UniProt P03372); experiment: Induction of ERalpha degradation in human MCF7 cells in phenol red free RPMI medium containing 5% charcoal-stripped FBS at 2 to 10 uM incubated for 4 hrs by IRDye 800CW/DRAQ5 dye based in-cell Western assay relative to fulvestrant
T1 sequence (whole entry): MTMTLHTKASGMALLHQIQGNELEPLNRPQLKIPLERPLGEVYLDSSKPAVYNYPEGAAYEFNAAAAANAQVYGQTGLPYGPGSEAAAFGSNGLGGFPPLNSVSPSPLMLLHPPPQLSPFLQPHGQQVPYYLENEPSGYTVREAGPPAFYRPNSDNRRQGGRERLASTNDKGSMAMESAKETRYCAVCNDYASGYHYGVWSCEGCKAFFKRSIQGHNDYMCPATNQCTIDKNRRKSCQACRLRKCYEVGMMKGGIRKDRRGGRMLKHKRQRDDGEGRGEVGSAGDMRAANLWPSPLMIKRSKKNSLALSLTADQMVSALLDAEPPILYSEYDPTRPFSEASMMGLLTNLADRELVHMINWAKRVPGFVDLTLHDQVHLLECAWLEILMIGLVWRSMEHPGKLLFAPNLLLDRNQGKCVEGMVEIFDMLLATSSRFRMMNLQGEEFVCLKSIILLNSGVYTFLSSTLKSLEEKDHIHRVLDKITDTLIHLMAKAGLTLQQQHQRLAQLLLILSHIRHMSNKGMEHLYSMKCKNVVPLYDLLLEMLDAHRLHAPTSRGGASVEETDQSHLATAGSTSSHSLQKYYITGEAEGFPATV

MCF7 = experiment: Antiproliferative activity against human MCF7 cells assessed as reduction in cell proliferation measured after 5 days by Cell-titer-Glo assay; assay type: functional, cell-based; settings: MCF7, 120 h
Estrogen receptor = molecular target: T2, Estrogen receptor (Homo sapiens, UniProt P03372); experiment: Induction of ERalpha degradation in human MCF7 cells in phenol red free RPMI medium containing 5% charcoal-stripped FBS incubated for 4 hrs by IRDye 800CW/DRAQ5 dye based in-cell Western assay
T2 sequence (P03372 whole entry): T1 sequence (whole entry)

[2] = molecular target: T1, Estrogen receptor (Homo sapiens); experiment: Induction of ERalpha degradation in human MCF7 cells in phenol red free RPMI medium containing 5% charcoal-stripped FBS incubated for 4 hrs by IRDye 800CW/DRAQ5 dye based in-cell Western assay relative to fulvestrant
Rattus norvegicus [3] = experiment: In vivo antagonist activity at estrogen receptor in CD-IGS rat assessed as reduction in 17alpha-ethynylestradiol-stimulated increase in uterine wet weight at 1 mg/kg, po administered daily 15 mins before 17alpha-ethynylestradiol treatment for 3 days and measured 24 hrs post last dose relative to basal level; assay type: functional
Rattus norvegicus [4] = experiment: In vivo antagonist activity at estrogen receptor in CD-IGS rat assessed as inhibition of estrogen-stimulated uterine growth at 1 mg/kg, po administered daily 15 mins before estrogen treatment for 3 days and measured 24 hrs post last dose relative to ARN-180; assay type: functional

Row | SMILES | Efficacy [1] [%] | IC50 (MCF7) [nM] | EC50 (Estrogen receptor) [nM] | Efficacy [2] [%] | Efficacy (Rattus norvegicus [3]) [%] | Efficacy (Rattus norvegicus [4]) [%]
1 | CC/C(=C(/c1ccc(/C=C/C(=O)O)cc1)c1ccn2nncc2c1)c1ccccc1 | 86 | > 500 | 340 |  |  | 
2 | CC/C(=C(/c1ccc(/C=C/C(=O)O)cc1)c1ccc(-c2cscn2)cc1)c1ccccc1 |  | 120 | 37 | 90 |  | 
3 | CC/C(=C(/c1ccc(/C=C/C(=O)O)cc1)c1ccc2cncn2c1)c1ccccc1 | 86 | > 500 | 260 |  |  | 
4 | CC/C(=C(/c1ccc(/C=C/C(=O)O)cc1)c1ccc(N2CCOCC2)cc1)c1ccccc1 |  | 94 | 50 | 91 |  | 
5 | CC/C(=C(/c1ccc(/C=C/C(=O)O)cc1)c1ccc(-c2cncs2)cc1)c1ccccc1 |  | 31 | 7.4 | 90 |  | 
6 | CC/C(=C(/c1ccc(/C=C/C(=O)O)cc1)c1ccc2nncn2c1)c1ccccc1 |  | > 500 | > 500 |  |  | 
7 | CC/C(=C(/c1ccc(/C=C/C(=O)O)cc1)c1ccc2scnc2c1)c1ccccc1 |  | 90 | 22 | 89 |  | 
8 | CC/C(=C(/c1ccc(/C=C/C(=O)O)cc1)c1ccc(N2CCN(C)CC2)cc1)c1ccccc1 | 85 | 220 | 90 |  |  | 
9 | CC/C(=C(/c1ccc(/C=C/C(=O)O)cc1)c1ccc(-c2cnn(C)c2)cc1)c1ccccc1 |  | 80 | 15 | 92 |  | 
10 | CC/C(=C(/c1ccc(/C=C/C(=O)O)cc1)c1ccc(-c2cc[nH]n2)cc1)c1ccccc1 | 86 | 440 | 99 |  |  | 
11 | CC/C(=C(/c1ccc(/C=C/C(=O)O)cc1)c1ccc2nccn2c1)c1ccccc1 | 86 | 170 | 75 |  |  | 
12 | CC/C(=C(/c1ccc(/C=C/C(=O)O)cc1)c1ccn2ccnc2c1)c1ccccc1 |  | > 500 | > 500 |  |  | 
13 | CC/C(=C(/c1ccc(/C=C/C(=O)O)cc1)c1ccc2ocnc2c1)c1ccccc1 | 86 | > 500 | 460 |  |  | 
14 | CC/C(=C(/c1ccc(/C=C/C(=O)O)cc1)c1ccc(N2CCCCC2)cc1)c1ccccc1 | 90 | 450 | 190 |  |  | 
15 | O=C(O)/C=C/c1ccc(/C(=C(\c2ncc(C(F)(F)F)cc2Cl)C2CCC2)c2ccc(-c3cn[nH]c3)cc2)cc1 |  | 16 | 2.8 | 93 |  | 
16 | CC/C(=C(/c1ccc(/C=C/C(=O)O)cc1)c1ccc2nnnn2c1)c1ccccc1 |  | > 500 | > 500 |  |  | 

Row | SMILES | Efficacy [1] [%] | IC50 (MCF7) [nM] | EC50 (Estrogen receptor) [nM] | Efficacy [2] [%] | Efficacy (Rattus norvegicus [3]) [%] | Efficacy (Rattus norvegicus [4]) [%]
17 | CC/C(=C(/c1ccc(/C=C/C(=O)O)cc1)c1ccc(-c2cn[nH]c2)cc1)c1ccccc1 |  | 40 | 12 | 91 |  | 
18 | CC/C(=C(/c1ccc(/C=C/C(=O)O)cc1)c1ccn2nccc2c1)c1ccccc1 | 90 | > 500 | 350 |  |  | 
19 | CC/C(=C(/c1ccc(/C=C/C(=O)O)cc1)c1ccc2sc(C)nc2c1)c1ccccc1 | 88 | > 500 | 150 |  |  | 
20 | CC/C(=C(\c1ccccc1)c1ccc(/C=C/C(=O)O)cc1)c1ccccc1 | 85 |  |  |  |  | 
21 | CC/C(=C(/c1ccc(/C=C/C(=O)O)cc1)c1ccc2ncsc2c1)c1ccccc1 | 86 | > 500 | 240 |  |  | 
22 | CC/C(=C(/c1ccc(/C=C/C(=O)O)cc1)c1ccc2sncc2c1)c1ccccc1 | 90 | > 500 | 200 |  |  | 
23 | CC/C(=C(/c1ccc(/C=C/C(=O)O)cc1)c1ccc2ccccc2c1)c1ccccc1 | 91 | 180 | 57 |  |  | 
24 | CC/C(=C(/c1ccc(/C=C/C(=O)O)cc1)c1ccc2c(cnn2C)c1)c1ccccc1 | 84 | 300 | 140 |  |  | 
25 | CC/C(=C(/c1ccc(/C=C/C(=O)O)cc1)c1ccc(-c2cnsc2)cc1)c1ccccc1 |  | 120 | 28 | 89 |  | 
26 | O=C(O)/C=C/c1ccc(/C(=C(\c2ccccc2)C2CCC2)c2ccc3scnc3c2)cc1 |  | 16 | 5.9 | 88 |  | 
27 | CC/C(=C(/c1ccc(/C=C/C(=O)O)cc1)c1ccc2c(cnn2C)c1)c1ccc(F)cc1Cl |  | 81 | 27 | 86 |  | 
28 | CC/C(=C(/c1ccc(/C=C/C(=O)O)cc1)c1ccc(-c2nccs2)cc1)c1ccccc1 | 91 | 290 | 83 |  |  | 
29 | CC/C(=C(/c1ccc(/C=C/C(=O)O)cc1)c1ccc(-c2cnco2)cc1)c1ccccc1 |  | 51 | 17 | 92 |  | 
30 | CC/C(=C(/c1ccc(/C=C/C(=O)O)cc1)c1ccc(-n2ccnc2)cc1)c1ccccc1 | 89 | 380 | 300 |  |  | 
31 | O=C(O)/C=C/c1ccc(/C(=C(\c2ncc(C(F)(F)F)cc2Cl)C2CCC2)c2ccc(N3CCOCC3)cc2)cc1 |  | 20 | 4.1 | 92 |  | 

More lines, main results first:

Row | Efficacy [1] [%] | IC50 (MCF7) [nM] | EC50 (Estrogen receptor) [nM] | Efficacy [2] [%] | SMILES | Efficacy (Rattus norvegicus [3]) [%] | Efficacy (Rattus norvegicus [4]) [%]
32 |  | 12 | 5 | 92 | N#Cc1cc(Cl)ccc1/C(=C(\c1ccc(/C=C/C(=O)O)cc1)c1ccc(N2CCOCC2)cc1)C1CCC1 |  | 
33 |  | 4.3 | 1.9 |  | N#Cc1cc(Cl)ccc1/C(=C(\c1ccc(/C=C/C(=O)O)cc1)c1ccc(-c2cncs2)cc1)C1CCC1 | 94 | 
34 |  | 4.4 | 1.5 |  | O=C(O)/C=C/c1ccc(/C(=C(\c2ccc(F)cc2Cl)C2CCC2)c2ccc3nccn3c2)cc1 | 90 | 
35 |  | 2.6 | 1 |  | O=C(O)/C=C/c1ccc(/C(=C(\c2ccc(C(F)(F)F)cc2Cl)C2CCC2)c2ccc3scnc3c2)cc1 | 93 | 
36 |  | 5.1 | 1.5 | 94 | O=C(O)/C=C/c1ccc(/C(=C(\c2ccc(C(F)(F)F)cc2Cl)C2CCC2)c2ccc3nccn3c2)cc1 |  | 
37 |  | 2.9 | 1.1 |  | O=C(O)/C=C/c1ccc(/C(=C(\c2ncc(C(F)(F)F)cc2Cl)C2CCC2)c2ccc3scnc3c2)cc1 |  | 92
38 |  | 9.2 | 1.7 |  | O=C(O)/C=C/c1ccc(/C(=C(\c2ccccc2)C2CCC2)c2ccc(-c3cncs3)cc2)cc1 | 89 | 
39 |  | 16 | 4.8 | 93 | O=C(O)/C=C/c1ccc(/C(=C(\c2ccc(C(F)(F)F)cc2Cl)C2CCC2)c2ccc(-c3cn[nH]c3)cc2)cc1 |  | 
40 |  | 5.9 | 4.3 | 93 | N#Cc1cc(Cl)ccc1/C(=C(\c1ccc(/C=C/C(=O)O)cc1)c1ccc2nccn2c1)C1CCC1 |  | 
41 |  | 4.6 |  |  | CC/C(=C(\c1ccc(O)cc1)c1ccc(/C=C/C(=O)O)cc1)c1ccccc1 |  | 
42 |  | 15 | 19 | 93 | N#Cc1ccc(/C(=C(\c2ccc(/C=C/C(=O)O)cc2)c2ccc3nccn3c2)C2CCC2)c(Cl)c1 |  | 
43 |  | 7.5 | 4.2 | 92 | N#Cc1ccc(/C(=C(\c2ccc(/C=C/C(=O)O)cc2)c2ccc(N3CCOCC3)cc2)C2CCC2)c(Cl)c1 |  | 
44 |  | 7.3 | 1.4 | 93 | O=C(O)/C=C/c1ccc(/C(=C(\c2ncc(C(F)(F)F)cc2Cl)C2CCC2)c2ccc(-c3cncs3)cc2)cc1 |  | 
45 |  | 2.9 | 1.8 | 94 | N#Cc1ccc(/C(=C(\c2ccc(/C=C/C(=O)O)cc2)c2ccc(-c3cncs3)cc2)C2CCC2)c(Cl)c1 |  | 
46 |  | 11 | 2.1 | 90 | O=C(O)/C=C/c1ccc(/C(=C(\c2ccccc2)C2CCC2)c2ccc(-c3cn[nH]c3)cc2)cc1 |  | 
47 |  | 1.4 | 0.8 |  | N#Cc1ccc(/C(=C(\c2ccc(/C=C/C(=O)O)cc2)c2ccc3scnc3c2)C2CCC2)c(Cl)c1 |  | 92
48 |  | 0.9 | 0.4 |  | N#Cc1cc(Cl)ccc1/C(=C(\c1ccc(/C=C/C(=O)O)cc1)c1ccc2scnc2c1)C1CCC1 |  | 91
49 |  | 5 | 1.6 |  | O=C(O)/C=C/c1ccc(/C(=C(\c2ccc(F)cc2Cl)C2CCC2)c2ccc(N3CCOCC3)cc2)cc1 |  | 90
50 |  | 4.2 | 0.8 |  | O=C(O)/C=C/c1ccc(/C(=C(\c2ccc(F)cc2Cl)C2CCC2)c2ccc(-c3cncs3)cc2)cc1 |  | 91
51 |  | 2.9 | 1.1 |  | O=C(O)/C=C/c1ccc(/C(=C(\c2ccc(F)cc2Cl)C2CCC2)c2ccc(-c3cn[nH]c3)cc2)cc1 |  | 91
52 |  | 3 | 0.7 |  | O=C(O)/C=C/c1ccc(/C(=C(\c2ccc(F)cc2Cl)C2CCC2)c2ccc3scnc3c2)cc1 |  | 91
